Experiments:
Type in all cases: in vivo
Conditions in all cases: evaluated after 13 days
[1] = system: Echinochloa crus-galli (ECHCG); test: Post-emergence herbicide test, glasshouse, percentage damage
How it was run: (§1)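 Damage was rated 13 days after spraying on a five-point scale (1=0-20% to 5=81-100%). The compound was applied at 500 g/ha unless stated otherwise, in acetone/water 50:50 plus 0.5% Tween 20, on day 1 (pre-emergence) or day 8 (post-emergence) after sowing. Plants were kept under glasshouse conditions of 24/16° C day/night and 14 h light.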

Solanum nigrum (SOLNI) [2] = test: as above
How it was run: as §1

[3] = system: Ipomoea hederacea (IPOHE); test: as above
How it was run: as §1

Lolium perenne (LOLPE) [4] = test: as above
How it was run: as §1

[5] = system: Amaranthus retoflexus (AMARE); test: as above
How it was run: as §1

Setaria faberi (SETFA) [6] = test: as above
How it was run: as §1

[7] = system: Echinochloa crus-galli (ECHCG); test: Pre-emergence herbicide test, glasshouse, percentage damage
How it was run: as §1

Solanum nigrum (SOLNI) [8] = test: as above
How it was run: as §1

[9] = system: Ipomoea hederacea (IPOHE); test: as above
How it was run: as §1

Lolium perenne (LOLPE) [10] = test: as above
How it was run: as §1

[11] = system: Amaranthus retoflexus (AMARE); test: as above
How it was run: as §1

Setaria faberi (SETFA) [12] = test: as above
How it was run: as §1

Structure (SMILES) | percentage damage caused to the plant, ECHCG ([1]; 1000 g/ha) | percentage damage caused to the plant, SOLNI (Solanum nigrum (SOLNI) [2]; 1000 g/ha) | percentage damage caused to the plant, IPOHE ([3]; 1000 g/ha) | percentage damage caused to the plant, LOLPE (Lolium perenne (LOLPE) [4]; 1000 g/ha) | percentage damage caused to the plant, AMARE ([5]; 1000 g/ha) | percentage damage caused to the plant, SETFA (Setaria faberi (SETFA) [6]; 1000 g/ha) | Pre-emergence Test ECHCG percentage damage (five point scale) ([7]; rate 1000 g/ha) | Pre-emergence Test SOLNI percentage damage (five point scale) (Solanum nigrum (SOLNI) [8]; rate 1000 g/ha) | Pre-emergence Test IPOHE percentage damage (five point scale) ([9]; rate 1000 g/ha) | Pre-emergence Test LOLPE percentage damage (five point scale) (Lolium perenne (LOLPE) [10]; rate 1000 g/ha) | Pre-emergence Test AMARE percentage damage (five point scale) ([11]; rate 1000 g/ha) | Pre-emergence Test SETFA percentage damage (five point scale) (Setaria faberi (SETFA) [12]; rate 1000 g/ha) | also measured
Fc1cc(Cl)cnc1Oc1cccc(F)c1-c1ncc(C(F)(F)F)o1 [Compound A3, 2-[2-[(5-CHLORO-3-FLUORO-2-PYRIDYL)OXY]-6-FLUORO-PHENYL]-5-(TRIFLUOROMETHYL)OXAZOLE] | – | – | – | – | – | – | – | – | – | – | – | – | percentage damage caused to the plant, ECHCG ([1]; 500 g/ha): 1 (1=0-20%); percentage damage caused to the plant, SOLNI (Solanum nigrum (SOLNI) [2]; 500 g/ha): 3 (3=41-60%); percentage damage caused to the plant, IPOHE ([3]; 500 g/ha): 1 (1=0-20%); percentage damage caused to the plant, LOLPE (Lolium perenne (LOLPE) [4]; 500 g/ha): 1 (1=0-20%); percentage damage caused to the plant, AMARE ([5]; 500 g/ha): 2 (2=21-40%); percentage damage caused to the plant, SETFA (Setaria faberi (SETFA) [6]; 500 g/ha): 4 (4=61-80%); Pre-emergence Test ECHCG percentage damage (five point scale) ([7]; rate 500 g/ha): 3 (3=41-60%); Pre-emergence Test SOLNI percentage damage (five point scale) (Solanum nigrum (SOLNI) [8]; rate 500 g/ha): 3 (3=41-60%); Pre-emergence Test IPOHE percentage damage (five point scale) ([9]; rate 500 g/ha): 1 (1=0-20%); Pre-emergence Test LOLPE percentage damage (five point scale) (Lolium perenne (LOLPE) [10]; rate 500 g/ha): 1 (1=0-20%); Pre-emergence Test AMARE percentage damage (five point scale) ([11]; rate 500 g/ha): 3 (3=41-60%); Pre-emergence Test SETFA percentage damage (five point scale) (Setaria faberi (SETFA) [12]; rate 500 g/ha): 3 (3=41-60%)
CS(=O)(=O)c1ccc(Oc2cccc(F)c2-c2cc(C(F)F)no2)nc1 [Compound A40] | 1 (1=0-20%) | 4 (4=61-80%) | 1 (1=0-20%) | 1 (1=0-20%) | 3 (3=41-60%) | 1 (1=0-20%) | 1 (1=0-20%) | 1 (1=0-20%) | 1 (1=0-20%) | 1 (1=0-20%) | 2 (2=21-40%) | 1 (1=0-20%) | –
Fc1cccc(Oc2cc(Cl)ccn2)c1-c1cc(C(F)F)no1 [Compound A60] | 1 (1=0-20%) | 4 (4=61-80%) | 2 (2=21-40%) | 1 (1=0-20%) | 4 (4=61-80%) | 2 (2=21-40%) | 2 (2=21-40%) | 1 (1=0-20%) | 1 (1=0-20%) | 1 (1=0-20%) | 5 (5=81-100%) | 1 (1=0-20%) | –
N#Cc1ccc(Oc2ccccc2-n2cc(C(F)(F)F)cn2)nc1 [Compound A19] | 5 (5=81-100%) | 5 (5=81-100%) | 5 (5=81-100%) | 5 (5=81-100%) | 5 (5=81-100%) | 5 (5=81-100%) | 5 (5=81-100%) | 5 (5=81-100%) | 5 (5=81-100%) | 5 (5=81-100%) | 5 (5=81-100%) | 5 (5=81-100%) | –
N#Cc1cccnc1Oc1cccc(Br)c1-c1cc(C(F)F)no1 [Compound A107] | 4 (4=61-80%) | 5 (5=81-100%) | 4 (4=61-80%) | 3 (3=41-60%) | 5 (5=81-100%) | 5 (5=81-100%) | 4 (4=61-80%) | 2 (2=21-40%) | 3 (3=41-60%) | 2 (2=21-40%) | 5 (5=81-100%) | 5 (5=81-100%) | –
Fc1cc(Cl)cnc1Oc1ccccc1-n1ccc(C(F)(F)F)n1 [Compound A121] | 3 (3=41-60%) | 4 (4=61-80%) | 2 (2=21-40%) | 1 (1=0-20%) | 4 (4=61-80%) | 3 (3=41-60%) | 4 (4=61-80%) | 1 (1=0-20%) | 1 (1=0-20%) | 1 (1=0-20%) | 4 (4=61-80%) | 3 (3=41-60%) | –
FC(F)c1cc(-c2c(Br)cccc2Oc2ccc(C(F)(F)F)cn2)on1 [Compound A90] | 4 (4=61-80%) | 4 (4=61-80%) | 4 (4=61-80%) | 4 (4=61-80%) | 5 (5=81-100%) | 5 (5=81-100%) | 5 (5=81-100%) | 4 (4=61-80%) | 3 (3=41-60%) | 5 (5=81-100%) | 4 (4=61-80%) | 5 (5=81-100%) | –
Fc1cccc(Oc2ccc(C(F)F)cn2)c1-c1cc(C(F)F)no1 [Compound A77] | – | – | – | – | – | – | – | – | – | – | – | – | percentage damage caused to the plant, ECHCG ([1]; 250 g/ha): 2 (2=21-40%); percentage damage caused to the plant, SOLNI (Solanum nigrum (SOLNI) [2]; 250 g/ha): 5 (5=81-100%); percentage damage caused to the plant, IPOHE ([3]; 250 g/ha): 1 (1=0-20%); percentage damage caused to the plant, LOLPE (Lolium perenne (LOLPE) [4]; 250 g/ha): 2 (2=21-40%); percentage damage caused to the plant, AMARE ([5]; 250 g/ha): 5 (5=81-100%); percentage damage caused to the plant, SETFA (Setaria faberi (SETFA) [6]; 250 g/ha): 5 (5=81-100%); Pre-emergence Test ECHCG percentage damage (five point scale) ([7]; rate 250 g/ha): 2 (2=21-40%); Pre-emergence Test SOLNI percentage damage (five point scale) (Solanum nigrum (SOLNI) [8]; rate 250 g/ha): 4 (4=61-80%); Pre-emergence Test IPOHE percentage damage (five point scale) ([9]; rate 250 g/ha): 1 (1=0-20%); Pre-emergence Test LOLPE percentage damage (five point scale) (Lolium perenne (LOLPE) [10]; rate 250 g/ha): 2 (2=21-40%); Pre-emergence Test AMARE percentage damage (five point scale) ([11]; rate 250 g/ha): 5 (5=81-100%); Pre-emergence Test SETFA percentage damage (five point scale) (Setaria faberi (SETFA) [12]; rate 250 g/ha): 5 (5=81-100%)
Fc1cc(Br)cnc1Oc1cccc(F)c1-c1cc(C(F)F)no1 [Compound A20] | 4 (4=61-80%) | 5 (5=81-100%) | 5 (5=81-100%) | 4 (4=61-80%) | 5 (5=81-100%) | 4 (4=61-80%) | 5 (5=81-100%) | 3 (3=41-60%) | 3 (3=41-60%) | 5 (5=81-100%) | 4 (4=61-80%) | 5 (5=81-100%) | –
Fc1cc(Cl)cnc1Oc1c(Br)cccc1-c1cc(C(F)F)no1 [Compound A83] | 4 (4=61-80%) | 4 (4=61-80%) | 2 (2=21-40%) | 4 (4=61-80%) | 5 (5=81-100%) | 4 (4=61-80%) | 2 (2=21-40%) | 1 (1=0-20%) | 1 (1=0-20%) | 1 (1=0-20%) | 4 (4=61-80%) | 2 (2=21-40%) | –
Fc1cccc(Oc2cccc(Cl)c2-c2cc(C(F)F)no2)n1 [Compound A111] | 4 (4=61-80%) | 5 (5=81-100%) | 4 (4=61-80%) | 4 (4=61-80%) | 5 (5=81-100%) | 5 (5=81-100%) | 5 (5=81-100%) | 4 (4=61-80%) | 1 (1=0-20%) | 4 (4=61-80%) | 5 (5=81-100%) | 5 (5=81-100%) | –
